SMILES strings stand for the structures.

As usually defined, the IC50 is the concentration at which inhibition is half-maximal. A lower IC50 goes with inhibition by little substance.

The nature of experiment [1]: Selectivity index, ratio of IC50 for rat L6 cells to IC50 for Trypanosoma cruzi Tulahuen C4. Type of experiment: functional, cell-based.
Experiment [2] is described as follows: Selectivity index, ratio of IC50 for rat L6 cells to IC50 for Leishmania donovani MHOM-ET-67/L82. Type of experiment: functional, cell-based.
Another experiment concerns L6. Briefly: Cytotoxicity against rat L6 cells. In kind it is cell-based.
The subject of experiment [3] is Trypanosoma brucei rhodesiense. Description: Antitrypanosomal activity against Trypanosoma brucei rhodesiense STIB900 trypomastigotes by microplate assay. In kind it is functional, organism-based.
Experiment [4] can be described thus: Selectivity index, ratio of IC50 for rat L6 cells to IC50 for Trypanosoma brucei rhodesiense STIB900. In kind it is functional, cell-based.
A further experiment concerns Trypanosoma cruzi. Description: Antitrypanosomal activity against Trypanosoma cruzi Tulahuen C4 amastigotes by microplate assay. Type of experiment: functional, organism-based.
A further experiment concerns Leishmania donovani. Briefly: Antileishmanial activity against Leishmania donovani MHOM-ET-67/L82 amastigotes by microplate assay. In kind it is functional, organism-based.

`O=C1C=C(Oc2ccccc2)C(=O)c2cc3ccccc3cc21`: the selectivity index in experiment [1] stood at 0.21; in experiment [2], 2.94; in experiment [4], 20. The IC50 is 1000 nM in the experiment with L6, 50 nM in experiment [3], 4660 nM in the experiment with Trypanosoma cruzi and 340 nM with Leishmania donovani.

For the compound `O=C1C=C(Oc2ccc(Cl)cc2Cl)C(=O)c2cc3ccccc3cc21`, the selectivity index in experiment [1] came out at 0.15; in experiment [2], 4.15; in experiment [4] it was 31. Further, the IC50 in the experiment on L6 came to 2010 nM; in experiment [3] it was 65 nM; in the experiment with Trypanosoma cruzi, 13700 nM; in the experiment on Leishmania donovani, 490 nM.

As for `O=C1C=C(Oc2ccc(Br)cc2Br)C(=O)c2ccccc21`, the selectivity index in experiment [1] worked out at 0.83; in experiment [2] it was 12.1; in experiment [4] it was 55.7. Also, the half-inhibitory concentration (IC50) with L6 came to 28500 nM; in experiment [3] it was 510 nM; with Trypanosoma cruzi, 34300 nM; with Leishmania donovani, 2370 nM.

Turning to `O=C1C=C(Oc2ccc(F)cc2F)C(=O)c2ccccc21`, the results for the selectivity index in experiment [1], in experiment [2] and in experiment [4] were 1.1, 2.41 and 14.2, respectively. In addition, the half-maximal inhibitory concentration (IC50) in the experiment with L6 amounted to 5510 nM; in experiment [3], 390 nM; with Trypanosoma cruzi, 5000 nM; in the experiment on Leishmania donovani, 2290 nM.

As to `O=C1C=C(Oc2ccc(Br)cc2Br)C(=O)c2cc3ccccc3cc21`, the selectivity index is 0.13 in experiment [1], 4.71 in experiment [2] and 15.4 in experiment [4]. For the same compound, the IC50 with L6 amounted to 2190 nM; in experiment [3], 140 nM; in the experiment with Trypanosoma cruzi, 16400 nM; in the experiment on Leishmania donovani, 470 nM.

Take `Cc1ccc(OC2=CC(=O)c3ccccc3C2=O)cc1Br`: the selectivity index in experiment [1] came to 1.71; in experiment [2], 5.34; in experiment [4] it was 16.4. The half-maximal inhibitory concentration (IC50) with L6 was found to be 4920 nM; in experiment [3], 300 nM; with Trypanosoma cruzi, 2880 nM; in the experiment on Leishmania donovani, 920 nM.

Turning to `O=C1C=C(Oc2ccccc2)C(=O)c2ccccc21`, the selectivity index is 4.7 in experiment [1], 4.69 in experiment [2] and 74 in experiment [4]. Further, the IC50 in the experiment on L6 is 5920 nM; in experiment [3], 80 nM; in the experiment on Trypanosoma cruzi, 1260 nM; in the experiment on Leishmania donovani it was 1260 nM.

`CCCCCCCCCCCCCCCCOP(=O)([O-])OCC[N+](C)(C)C` [MILTEFOSINE]: in the experiment with Leishmania donovani, the 50% inhibitory concentration (IC50) was 310 nM.

Consider `Cc1ccc(OC2=CC(=O)c3ccccc3C2=O)c(C)c1`, for which the selectivity index amounted to 2.13 in experiment [1], 10.3 in experiment [2] and 24.4 in experiment [4]. The IC50 in the experiment on L6 came to 5260 nM; in experiment [3] it was 220 nM; in the experiment on Trypanosoma cruzi it was 2470 nM; with Leishmania donovani, 510 nM.

Consider `O=C1C=C(Oc2ccc(Cl)cc2F)C(=O)c2ccccc21`, for which the figures for the selectivity index in experiment [1], in experiment [2] and in experiment [4] were 1.03, 6.54 and 12.5, respectively. Besides, the IC50 in the experiment on L6 is 4580 nM; in experiment [3] it was 370 nM; with Trypanosoma cruzi it was 4430 nM; in the experiment on Leishmania donovani, 700 nM.

As for `Cc1ccc(OC2=CC(=O)c3cc4ccccc4cc3C2=O)cc1Br`, the selectivity index worked out at 0.4 in experiment [1], 7.1 in experiment [2] and 17.4 in experiment [4]. The IC50 in the experiment with L6 came to 2560 nM; in experiment [3] it was 150 nM; in the experiment with Trypanosoma cruzi it was 6360 nM; in the experiment with Leishmania donovani, 360 nM.

With `O=C1C=C(Oc2ccc(F)cc2Br)C(=O)c2ccccc21`, the values for the selectivity index in experiment [1], in experiment [2] and in experiment [4] were 1.25, 2.58 and 13.1, respectively. Besides, the IC50 with L6 was found to be 4660 nM; in experiment [3] it was 360 nM; in the experiment with Trypanosoma cruzi, 3740 nM; with Leishmania donovani it was 1810 nM.

For the compound `O=C1C=C(Oc2ccc(F)cc2F)C(=O)c2cc3ccccc3cc21`, the selectivity index in experiment [1] turned out to be 0.28; in experiment [2], 7.01; in experiment [4], 8.43. The IC50 in the experiment on L6 worked out at 1980 nM; in experiment [3] it was 240 nM; in the experiment on Trypanosoma cruzi, 7140 nM; in the experiment with Leishmania donovani it was 280 nM.

For `O=C1C=C(Oc2ccc(Cl)cc2Cl)C(=O)c2ccccc21`, the figures for the selectivity index in experiment [1], in experiment [2] and in experiment [4] were 0.87, 3.94 and 17.8, respectively. The half-inhibitory concentration (IC50) with L6 is 5180 nM; in experiment [3] it was 290 nM; in the experiment on Trypanosoma cruzi, 5950 nM; in the experiment on Leishmania donovani, 1320 nM.

As for `O=C1C=C(Oc2ccc(Cl)cc2F)C(=O)c2cc3ccccc3cc21`, the results for the selectivity index in experiment [1], in experiment [2] and in experiment [4] were 0.12, 5.01 and 12.4, respectively. Moreover, the IC50 is 2640 nM in the experiment on L6, 210 nM in experiment [3], 21500 nM with Trypanosoma cruzi and 530 nM in the experiment on Leishmania donovani.

Consider `Cc1ccc(OC2=CC(=O)c3cc4ccccc4cc3C2=O)c(C)c1`, for which the values for the selectivity index in experiment [1], in experiment [2] and in experiment [4] were 0.18, 7.53 and 13.2, respectively. The IC50 in the experiment with L6 was 4130 nM; in experiment [3], 310 nM; in the experiment with Trypanosoma cruzi, 22500 nM; in the experiment on Leishmania donovani it was 550 nM.

Consider `O=C1C=C(Oc2ccc(F)cc2Br)C(=O)c2cc3ccccc3cc21`, for which the selectivity index in experiment [1] was found to be 0.39; in experiment [2], 3.24; in experiment [4], 14.1. For the same compound, the 50% inhibitory concentration (IC50) in the experiment with L6 turned out to be 1130 nM; in experiment [3] it was 80 nM; with Trypanosoma cruzi, 2870 nM; in the experiment on Leishmania donovani, 350 nM.

The values are drawn from ChEMBL document CHEMBL1141548, “Synthesis of a small library of 2-phenoxy-1,4-naphthoquinone and 2-phenoxy-1,4-anthraquinone derivatives bearing anti-trypanosomal and anti-leishmanial activity” (Bioorg Med Chem Lett, 2008).
